Source: publication PMC10108347, “Heterobifunctional Ligase Recruiters Enable pan-Degradation of Inhibitor of Apoptosis Proteins” (Journal of Medicinal Chemistry, 2023)
Where two headings read alike, the source gives them in different places. Each block holds one molecule with its values, some of them ahead of it.

Experiments:
MOLM13 = experiment: CellTiter-Glo cell viability assay, MOLM13; type: cell-based; conditions: Homo sapiens
Description: As TNF-α and related signaling cascades represent crucial factors for the single-agent activity of IAP-targeting compounds,[29],[38],[39],[55] the viability inhibition of sensitive cell lines was evaluated in the presence and absence of this inflammatory stimulus. […] These effects were independent of IAP baseline levels (Figure S16), which is in agreement with the previous studies of IAP antagonists.
Cells were seeded in 384-well plates with respective treatments, and plates were incubated at 37 °C for 96 h. Viability assays were performed with or without the addition of TNF-α at 1 ng/mL. The cell viability readout was measured using the CellTiter-Glo Luminescent Cell Viability Assay (Promega, Madison, USA) and measured with a Synergy LX Multi-Mode plate reader (BioTek, Vermont, USA). All conditions were normalized to the DMSO-treated control. Data represents the mean ± SD of biological triplicates.

CRBN = CRBN (Homo sapiens, UniProt Q96SW2); experiment: Immunoblotting (western blot) quantification of CRBN levels in MM.1S cells; conditions: MM1.S, 16 h, read-out: %remaining protein CRBN
CRBN, sequence (Q96SW2 whole entry): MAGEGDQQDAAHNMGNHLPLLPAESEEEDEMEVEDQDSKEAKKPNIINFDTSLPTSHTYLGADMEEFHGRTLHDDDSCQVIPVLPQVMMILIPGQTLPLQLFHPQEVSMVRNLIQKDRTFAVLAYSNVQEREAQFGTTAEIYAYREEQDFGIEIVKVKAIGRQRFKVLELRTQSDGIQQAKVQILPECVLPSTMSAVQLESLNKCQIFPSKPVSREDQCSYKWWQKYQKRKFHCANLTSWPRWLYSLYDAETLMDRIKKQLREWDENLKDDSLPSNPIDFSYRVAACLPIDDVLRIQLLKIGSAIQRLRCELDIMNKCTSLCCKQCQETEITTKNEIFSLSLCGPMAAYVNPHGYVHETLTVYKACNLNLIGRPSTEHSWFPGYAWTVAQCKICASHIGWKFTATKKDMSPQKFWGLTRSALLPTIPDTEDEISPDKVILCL

IKZF3 = experiment: Immunoblotting (western blot) quantification of IKZF3 levels in MM.1S cells; conditions: for %remaining protein IKZF3: 16 h treatment at 0.1 μM, normalized to loading control and DMSO
VHL30 = VHL30 (Homo sapiens, UniProt P40337); experiment: Immunoblotting (western blot) quantification of VHL30 levels in MM.1S cells
VHL30, sequence (P40337 whole entry): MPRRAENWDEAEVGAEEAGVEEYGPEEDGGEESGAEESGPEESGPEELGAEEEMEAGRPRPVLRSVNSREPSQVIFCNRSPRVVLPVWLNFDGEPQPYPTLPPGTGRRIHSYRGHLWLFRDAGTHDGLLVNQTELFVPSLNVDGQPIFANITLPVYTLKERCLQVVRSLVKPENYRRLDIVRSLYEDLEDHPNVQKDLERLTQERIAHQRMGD

VHL19 = VHL19 (Homo sapiens, UniProt P40337); experiment: Immunoblotting (western blot) quantification of VHL19 levels in MM.1S cells; conditions: 16 h, 1 μM
VHL19, sequence (P40337 54-213): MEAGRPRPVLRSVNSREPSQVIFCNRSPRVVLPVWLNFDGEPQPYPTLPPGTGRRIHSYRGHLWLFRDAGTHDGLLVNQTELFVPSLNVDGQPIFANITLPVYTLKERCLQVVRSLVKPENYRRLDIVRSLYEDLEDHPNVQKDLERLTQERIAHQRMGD
Description: To evaluate the capability of our panel of hetero-PROTACs for E3 ligase degradation, VHL19, VHL30, CRBN, cIAP1, cIAP2, and XIAP levels were quantified by western blot analyses. […] SDS-PAGE was performed, and proteins were then transferred onto PVDF membranes. Blotted membranes were blocked with 5% milk in Tris-buffered saline/Tween20 (TBST). Primary antibodies were diluted in 5% BSA in TBST, and incubations were performed overnight at 4 °C. Secondary HRP-conjugated antibodies diluted in 5% milk were incubated for 1 h at room temperature. Detection of proteins on PVDF was carried out using the WesternBright ECL HRP substrate or the WesternBright Sirius HRP substrate (Advansta, San Jose, USA) and imaged with LAS 4000× (Fujifilm). Membranes were subjected to 10 min incubation with Restore Western Blot Stripping Buffer (Thermo Fisher Scientific, Waltham, USA), followed by TBST washes. After brief re-activation with methanol, the membranes were blocked, and further probing of proteins was carried out.
Quantification of blots was performed using ImageJ software (National Institutes of Health).

[1] = molecular target: T1, plasma protein (HSA column) (Homo sapiens, UniProt P02768); experiment: Plasma protein binding estimated by HPLC on a […] HSA column; type: in vitro ADME; conditions: CHIRALPAK HSA column (50 × 3 mm, 5 μm), estimated by an HPLC-based method, read-out: PPB (plasma protein binding) (converted)
T1 construct: purchased
T1 sequence (P02768 25-609): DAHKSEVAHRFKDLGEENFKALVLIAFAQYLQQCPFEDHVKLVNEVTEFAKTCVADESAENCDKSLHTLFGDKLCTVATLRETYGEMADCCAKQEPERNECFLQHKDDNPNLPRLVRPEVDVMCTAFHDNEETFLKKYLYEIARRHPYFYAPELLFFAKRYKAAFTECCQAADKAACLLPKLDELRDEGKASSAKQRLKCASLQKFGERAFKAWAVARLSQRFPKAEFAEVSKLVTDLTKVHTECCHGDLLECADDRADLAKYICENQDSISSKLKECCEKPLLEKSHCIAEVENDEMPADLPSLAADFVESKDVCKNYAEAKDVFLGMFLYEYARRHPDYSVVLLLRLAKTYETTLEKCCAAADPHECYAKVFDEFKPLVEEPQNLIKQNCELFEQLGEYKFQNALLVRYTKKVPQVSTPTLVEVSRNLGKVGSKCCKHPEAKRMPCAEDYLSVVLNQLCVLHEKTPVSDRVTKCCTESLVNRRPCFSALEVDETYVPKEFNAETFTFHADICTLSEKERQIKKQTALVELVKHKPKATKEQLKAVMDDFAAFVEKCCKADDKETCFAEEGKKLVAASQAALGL
In short: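 % PPB was estimated from log retention time on an HSA column (50 × 3 mm, 5 μm, 30 °C), calibrated against log K of literature-PPB reference drugs. Samples were eluted with 50 mM ammonium acetate pH 7.4 and an iPrOH gradient to 30%, with UV detection at 254 nm.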

SMILES: CN[C@@H](C)C(=O)N[C@H](C(=O)N1C[C@@H](Oc2cccc(OCCOCCCCCCOCCCCCCNc3cccc4c3C(=O)N(C3CCC(=O)NC3=O)C4=O)c2)C[C@H]1C(=O)N[C@@H]1CCCc2ccccc21)C1CCCCC1 (stereo partly drawn) [PROTAC 25, (2S,4S)-1-((S)-2-Cyclohexyl-2-((S)-2-(methylamino)propanamido)acetyl)-4-(3-(2-((6-((6-((2-(2,6-dioxopiperidin-3-yl)-1,3-dioxoisoindolin-4-yl)amino)hexyl)oxy)hexyl)oxy)ethoxy)phenoxy)-N-((R)-1,2,3,4-tetrahydronaphthalen-1-yl)pyrrolidine-2-carboxamide]
IC50 (MOLM13; MOLM-13, read-out: MOLM13): 52 nM
remaining activity at 0.1 µM (CRBN): 91%
IKZF3 degradation (in words) (IKZF3; 16 h, 1 μM): substantial IKZF3 degradation at 1 μM
%remaining protein IKZF3 (IKZF3): 95%

SMILES: CN[C@@H](C)C(=O)N[C@H](C(=O)N1C[C@@H](Oc2cccc(OCCCCC(=O)N[C@H](C(=O)N3C[C@H](O)C[C@H]3C(=O)N[C@@H](C)c3ccc(-c4scnc4C)cc3)C(C)(C)C)c2)C[C@H]1C(=O)N[C@@H]1CCCc2ccccc21)C1CCCCC1 [PROTAC 9, (2S,4S)-1-((S)-2-Cyclohexyl-2-((S)-2-(methylamino)propanamido)acetyl)-4-(3-((5-(((S)-1-((2S,4R)-4-hydroxy-2-(((S)-1-(4-(4-methylthiazol-5-yl)phenyl)ethyl)carbamoyl)pyrrolidin-1-yl)-3,3-dimethyl-1-oxobutan-2-yl)amino)-5-oxopentyl)oxy)phenoxy)-N-((R)-1,2,3,4-tetrahydronaphthalen-1-yl)pyrrolidine-2-carboxamide]
IC50 (MOLM13; MOLM-13, AML cell line, 96 h, TNFα-challenged, read-out: IC50 cell viability MOLM13): 2.1 nM
remaining activity at 0.1 µM (VHL30; MM1.S, 16 h, read-out: %remaining protein VHL30, MM.1S cells, 16 h treatment at 0.1 μM, normalized to loading control and DMSO): 9%
VHL30 degradation (in words) (VHL30; MM.1S cells, western blot): most pronounced after 6 h of treatment
remaining VHL19 (VHL19): 24%

SMILES: CN[C@@H](C)C(=O)N[C@@H](C(=O)N1CCC[C@H]1C(=O)N[C@@H]1c2ccccc2C[C@@H]1OCC#CC#CCO[C@H]1Cc2ccccc2[C@H]1NC(=O)[C@@H]1CCCN1C(=O)[C@H](NC(=O)[C@H](C)NC)C1CCCCC1)C1CCCCC1 [AZD5582, reference compound]
IC50 (MOLM13; MOLM-13, SI csv, head prints only the cell line, no quantity or unit, values parallel Table 1/S8, read-out: MOLM13): 2 nM
fraction unbound at 0.5 mg/mL [1]: 0.06

remaining activity at 0.1 µM (CRBN): 95%
SMILES: CN[C@@H](C)C(=O)N[C@H](C(=O)N1C[C@@H](Oc2cccc(OCCCCCCOCCCCCCOCCCCCCNc3cccc4c3C(=O)N(C3CCC(=O)NC3=O)C4=O)c2)C[C@H]1C(=O)N[C@@H]1CCCc2ccccc21)C1CCCCC1 (stereo partly drawn) [PROTAC 27, (2S,4S)-1-((S)-2-Cyclohexyl-2-((S)-2-(methylamino)propanamido)acetyl)-4-(3-((6-((6-((6-((2-(2,6-dioxopiperidin-3-yl)-1,3-dioxoisoindolin-4-yl)amino)hexyl)oxy)hexyl)oxy)hexyl)oxy)phenoxy)-N-((R)-1,2,3,4-tetrahydronaphthalen-1-yl)pyrrolidine-2-carboxamide]
%remaining protein IKZF3 (IKZF3): 95%
